From US8604214B2, “Compounds for alleviation, prevention or treatment of osteoporosis, the preparation thereof and pharmaceutical composition comprising the same” (Ewha University-Industry Collaboration Foundation, priority 2011, dated 2013)

Experiments:
Type in all cases: cell-based, ICR mice
[1] = test system: bone marrow cells (BMM), TRAP-positive multinucleated osteoclasts; assay: RANKL-induced osteoclast differentiation of BMM, TRAP staining; settings: Mus musculus, 96 h, RANKL and 30 ng/ml M-CSF, 4 days, TRAP-positive cells having 3 or more nuclei, read-out: IC50 (μM), multinucleated osteoclast formation
Excerpt: ICR mice (6˜9 weeks old, male) were sacrificed by cervical dislocation, followed by immersion in 70% ethanol for sterilization. Dissection was made on the tibia skin to remove the muscle attached thereto. The tibia was excised by cutting the distal tibia and dislocating the patella. The tibia were then cut slightly at their opposite ends. A 25-gauge (G) syringe needle was inserted into the bone at one end and α-MEM (Minimum Essential Medium) was infused into the bone through the needle to collect bone marrow cells.
After centrifugation, a cell pellet was suspended in α-MEM and red blood cells in the suspension were removed with two volumes of Gey's solution. After centrifugation, the cell pellet was resuspended in α-MEM supplemented with 10% FBS.
After a primary culture of the bone marrow cells, the bone marrow cells were incubated overnight in 10 ng/ml M-CSF (macrophage colony-stimulating factor) and then for an additional three days in 30 ng/ml M-CSF. After Adhesive cells (BMM) were recovered, ng/ml RANKL and 30 ng/ml M-CSF or ng/ml RANKL, 30 ng/ml M-CSF in combination with various concentrations of the K11, K14, K17, K18, K19, or K22 compound were added to each well plated at a density of 1×10^5 cells/well and each well was incubated for 4 days. The incubated to cells were fixed for 10 min with 10% formalin and then re-fixed for 1 min with ethanol/acetone (1:1(v/v)). The cells were stained for TRAP (tartrate-resistant acid phosphatase). TRAP-positive cells having 3 or more nuclei were evaluated as multinucleated osteoclasts by observation under a microscope, and their IC50 values are given in the following table 1.

NFATc1 = assay: Western blot analysis of NFATc1 expression; settings: 200 ng/ml RANKL following pretreatment with 10 μM K11 for 30 minutes; FIG. 4
Experimental: (§1) After BMM cells treated with reagent were incubated for a predetermined period of time, the BMM cell were lysed in a lysis buffer and centrifuged. Following normalization to BSA (bovine serum albumin) standards, protein concentrations were quantitatively analyzed using a protein assay kit (Bio-Rad). Twenty micrograms of the protein was denatured and separated by SDS-PAGE (poly acrylamide gel electrophoresis) and transferred for 1 hour and 45 minutes onto a PVDF membrane in 80 V. Subsequently, the membrane was blocked with PBST (Phosphate Buffered Saline Tween-20) containing 5% skim milk, followed by reaction with anti-NFATc1 (Nuclear factor of activated T-cells cytoplasmic 1, 1:200, Santa Cruz) antibody or anti-c-fos (1:1000, Cell Signaling) antibody as a primary antibody, respectively (1:200 ratio herein indicated means dilution of 200 times). After the membrane was washed five times with TBST and reacted with HRP (horseradish peroxidase)-conjugated secondary antibody, the protein was visualized using ECL Advance (Amersham Co.) and analyzed.
(§2) In FIGS. 4 and 5, veh represents a control group treated with DMSO, RANKL represents a group treated with 200 ng/ml RANKL, R+K11 represents a group treated with 200 ng/ml RANKL following pretreatment with 10 μM K11 for 30 minutes, while * represents p<0.05 compared to Veh and ** represents *: p<0.05 compared to RANKL.

c-fos = assay: Western blot analysis of c-fos expression; settings: 200 ng/ml RANKL following pretreatment with 10 μM K11 for 30 minutes; FIG. 5
Experimental: as §1, §2

[2] = test system: BMM cells on dentine slices (bone resorption of osteoclasts); assay: Pit formation assay on dentine slices; settings: 50 ng/ml RANKL, 30 ng/ml M-CSF and 10 μM K11, six days, compared to RANKL; FIGS. 3B and 3C
Experimental: BMM cells were cultured for six days on dentine slices in 50 ng/ml RANKL and 30 ng/ml M-CSF, or 50 ng/ml RANKL 30 ng/ml and 10 μM K11 compound. After the cells on surfaces of dentine slice were washed, pits were stained with toluidin blue (J. T. Baker, UK, 1 μg/ml). Pits formed on the dentine slices by bone absorption were observed under a microscope and were analyzed.
(§3) In FIG. 3, Veh represents a control group treated with DMSO, RANKL represents a group treated with 50 ng/ml RANKL, K11 represents a group treated with 10 μM K11, R+K11 represents a group treated with 50 ng/ml RANKL following pretreatment with 10 μM K11 for 30 minutes, while * represents p<0.05 compared to Veh and ** represents *: p<0.05 compared to RANKL. N.D.=Not Detectable. FIG. 3A is graphs showing analyzed results of reverse transcription polymerase chain reaction (RT-PCR) performed for measurement of expression levels of osteoclast-specific marker genes (calcitonin receptor, cathepsin K, αv-integrin, β3-integrin, ATP6v0d2, DC-STAMP), FIG. 3B is a view of result of pits formed on dentine slices by bone absorption according to treatment with K11 compound and FIG. 3C is a graph showing analyzed results of the experiment results obtained in FIG. 3B. […]

[3] = test system: osteoclast-specific marker genes (calcitonin receptor, cathepsin K, αv-integrin, β3-integrin, ATP6v0d2, DC-STAMP); assay: RT-PCR of osteoclast-specific marker genes; settings: R+K11: 50 ng/ml RANKL following pretreatment with 10 μM K11 for 30 minutes, compared to RANKL; FIG. 3A
Experimental: Total RNA isolation was conducted using Easy-blue (Intron Biochemistry, Inc.). cDNA was synthesized from […] of the total RNA using an oligodT primer and 10 mM dNTP, 1 unit of an RNase inhibitor and 4 units of Scrip reverse transcriptase (Fermentas, Life science) at 42° C. for 60 min, followed by termination by heating at 70° C. for 10 min.
as §3

| SMILES | IC50 [1] | further results |
| --- | --- | --- |
| COc1cc(C(=O)N(C(C)C)C(C)C)ccc1OCCCCOc1nc2ccccc2s1 [Compound K22, 4-(4-(Benzo[d]thiazol-2-yloxy)butoxy)-N,N-diisopropyl-3-methoxy Benzamide] | 2.2 µM | – |
| COc1ccccc1OCCCCCOc1nc2ccccc2s1 [Compound K17, 2-(5-(2-Methoxyphenoxy)pentyloxy)benzo[d]thiazole] | 23.4 µM | – |
| Fc1ccccc1OCCCCCOc1nc2ccccc2s1 [Compound K18, 2-(5-(2-Fluorophenoxy)pentyloxy)benzo[d]thiazole] | 18.4 µM | – |
| c1ccc(OCCCCOc2nc3ccccc3s2)cc1 [Compound K19, 2-(4-Phenoxybutoxy)benzo[d]thiazole] | 17.7 µM | – |
| Clc1cccc(OCCCCCOc2nc3ccccc3s2)c1 [Compound K14, 2-(5-(3-chlorophenoxy)pentyloxy)benzo[d]thiazole] | 7.77 µM | – |
| COc1cc(C(=O)N(C(C)C)C(C)C)ccc1OCCCCCOc1nc2ccccc2s1 [Compound K11, 4-(5-(Benzo[d]thiazol-2-yloxy)pentyloxy)-N,N-diisopropyl-3-methoxybenzamide] | 1.56 µM | RANKL-induced increase in the expression level of NFATc1 (NFATc1): the effect of RANKL was reduced; RANKL-induced increase in the expression level of c-fos (c-fos): the effect of RANKL was reduced; number of pits on dentine slices [2]: significant reduction; expression levels of osteoclast-specific marker genes [3]: significantly decreased |
